Laboratory results reported in patent US7537787B2, “Method for modulating glutamate and/or aspartate release in a central nervous system locus” (Indiana University Research and Technology Corporation, priority 1996, dated 2009).

Key:
[1] = system: Gαq/11 G proteins (TRH receptor); details: sustained TRH exposure (16 hr.) to its receptor; cited from earlier work
[2] = system: rat hippocampal slices (glutamate release); assay: TRH inhibition of [K+]-stimulated glutamate release from superfused hippocampal slices in vitro; type: cell-based; details: for glutamate at 10 min. post stimulation: control 4.37±1.29; for peak 50 mM [K+]-stimulated glutamate release: control 48.05±8.59
Excerpt: TRH INHIBITION OF [K^+]-STIMULATED GLUTAMATE RELEASE FROM HIPPOCAMPAL SLICES IN VITRO. Enhanced excitatory amino acid release is suspected in pathways associated with seizures and excitotoxicity. In this regard, superfused hippocampal slices were used to investigate the hypothesis that TRH could inhibit glutamate release in vitro. Rat hippocampi were removed and sliced transversely (500 μm) under low magnification. Slices were weighed, washed in cold saline, transferred to individual tissue chambers floated in a 37° C. water bath and were equilibrated in oxygenated (95% O2/5% CO2), (37° C.) Kreb's buffer (KRB) for 120 min. (0.5 ml/min.). Slice chambers were then superfused 10 min. with KRB (control), or KRB containing 10 μM, 1 μM, or 0.1 μM TRH respectively, prior to 5 min. stimulation with modified KRB (50 mM [K^+]±TRH). Fractions (1 min.) were collected during the 5 min. stimulation and for an additional 10 min. (0.5 ml/min.) thereafter, and analyzed for glutamate by HPLC.

NC(=O)[C@@H]1CCCN1C(=O)[C@H](Cc1cnc[nH]1)NC(=O)[C@@H]1CCC(=O)N1 [TRH, Thyrotropin-releasing hormone]
reduction of Gαq/11 G proteins [1]: 20-70% | glutamate at 10 min. post stimulation ([2]; 0.1 μM TRH): 1.54±0.43 μM/g/fraction | peak 50 mM [K+]-stimulated glutamate release ([2]; 0.1 μM TRH): 1.38±0.28 μM/g/fraction | glutamate at 10 min. post stimulation ([2]; 1 μM TRH): 1.11±0.26 μM/g/fraction | peak 50 mM [K+]-stimulated glutamate release ([2]; 1 μM TRH): 1.54±0.33 μM/g/fraction | glutamate at 10 min. post stimulation ([2]; 10 μM TRH): 1.35±0.48 μM/g/fraction | peak 50 mM [K+]-stimulated glutamate release ([2]; 10 μM TRH): 2.35±0.50 μM/g/fraction | glutamate release by 50 mM [K+]-stimulation given 15 min. later ([2]; 5 min. perfusion with KRB+10 μM TRH, p<0.05, FIG. 6): significantly (p<0.05) blocked
